Data reported in the RepoRT retention time repository (doi:10.1016/j.jchromb.2020.122105).
Where a name gives a salt, the structure may show the parent alone.

How the values were obtained:
Conditions in all cases: stereoisomer not certain
[1] = RP, Waters CORTECS T3, 100 × 2.1 mm, 2.7 µm, 0.25 mL/min, estimated dead time 0.88 min; A: water + 0.1% formic acid, pH 3; B: methanol + 0.1% formic acid, pH 3; gradient (min/%B) 0/5 5/5 25/95 25.1/100 35/100 35.1/5 45/5
[2] = RP, Waters CORTECS T3, 100 × 2.1 mm, 2.7 µm, 0.25 mL/min, estimated dead time 0.88 min; A: water + 0.1% formic acid, pH 3; B: methanol + 0.1% formic acid, pH 3; gradient (min/%B) 0/0 1/0 6/5 30/100 35/100 35.1/0 40/0
[3] = RP, Waters CORTECS T3, 100 × 2.1 mm, 2.7 µm, 0.1 mL/min, estimated dead time 2.2 min; A: water + 0.1% formic acid, pH 3; B: methanol + 0.1% formic acid, pH 3; gradient (min/%B) 0/5 5/5 25/95 25.1/100 35/100 35.1/5 45/5
[4] = RP, Waters CORTECS T3, 100 × 2.1 mm, 2.7 µm, 0.3 mL/min, estimated dead time 0.73 min; A: water + 0.1% formic acid, pH 3; B: methanol + 0.1% formic acid, pH 3; gradient (min/%B) 0/0 1/0 6/5 30/100 35/100 35.1/0 40/0
[5] = RP, Waters ACQUITY UPLC BEH C18, 100 × 2.1 mm, 1.7 µm, 0.2 mL/min, estimated dead time 1.1 min; A: water + 0.1% formic acid, pH 3; B: methanol + 0.1% formic acid, pH 3; gradient (min/%B) 0/5 5/5 25/100 30/100 30.1/5 35/5
[6] = RP, Waters CORTECS T3, 100 × 2.1 mm, 2.7 µm, 0.3 mL/min, estimated dead time 0.73 min; A: water + 0.1% formic acid, pH 3; B: methanol + 0.1% formic acid, pH 3; gradient (min/%B) 0/5 5/5 25/95 25.1/100 35/100 35.1/5 45/5
[7] = RP, Waters CORTECS T3, 100 × 2.1 mm, 2.7 µm, 0.3 mL/min, estimated dead time 0.73 min; A: water + 0.1% formic acid, pH 3; B: methanol + 0.1% formic acid, pH 3; gradient (min/%B) 0/0 5/0 25/100 30/100 30.1/0 35/0
[8] = RP, Waters CORTECS T3, 100 × 2.1 mm, 2.7 µm, 0.2 mL/min, estimated dead time 1.1 min; A: water + 0.1% formic acid, pH 3; B: methanol + 0.1% formic acid, pH 3; gradient (min/%B) 0/0 1/0 6/5 30/100 35/100 35.1/0 40/0
[9] = RP, Waters CORTECS T3, 100 × 2.1 mm, 2.7 µm, 0.3 mL/min, estimated dead time 0.73 min; A: water + 0.1% formic acid, pH 3; B: methanol + 0.1% formic acid, pH 3; gradient (min/%B) 0/0 1/0 6/5 30/100 35/100 35.1/0 40/0; remark: listed apart in the source
[10] = RP, Waters ACQUITY UPLC BEH C18, 100 × 2.1 mm, 1.7 µm, 0.1 mL/min, estimated dead time 2.2 min; A: water + 0.1% formic acid, pH 3; B: methanol + 0.1% formic acid, pH 3; gradient (min/%B) 0/5 5/5 25/95 25.1/100 35/100 35.1/5 45/5
[11] = RP, Waters CORTECS T3, 100 × 2.1 mm, 2.7 µm, 0.2 mL/min, estimated dead time 1.1 min; A: water + 0.1% formic acid, pH 3; B: methanol + 0.1% formic acid, pH 3; gradient (min/%B) 0/0 1/0 6/5 30/100 35/100 35.1/0 40/0; remark: listed apart in the source
[12] = HILIC, Merck SeQuant ZIC-HILIC, 150 × 2.1 mm, 5 µm, 0.75 mL/min, estimated dead time 0.44 min; A: water + 0.1% acetic acid + 10 mM ammonium acetate, pH 4; B: 5% water + 95% acetonitrile + 0.1% acetic acid + 10 mM ammonium acetate, pH 4; gradient (min/%B) 0/95 5/95 20/57 25/57 30/95 40/95
[13] = RP, Waters CORTECS T3, 100 × 2.1 mm, 2.7 µm, 0.3 mL/min, estimated dead time 0.73 min; A: water + 0.1% formic acid, pH 3; B: methanol + 0.1% formic acid, pH 3; gradient (min/%B) 0/5 5/5 25/100 30/100 30.1/5 35/5
[14] = RP, Waters CORTECS T3, 100 × 2.1 mm, 2.7 µm, 0.1 mL/min, estimated dead time 2.2 min; A: water + 0.1% formic acid, pH 3; B: methanol + 0.1% formic acid, pH 3; gradient (min/%B) 0/0 1/0 6/5 30/100 35/100 35.1/0 40/0
[15] = RP, Waters CORTECS T3, 100 × 2.1 mm, 2.7 µm, 0.15 mL/min, estimated dead time 1.5 min; A: water + 0.1% formic acid, pH 3; B: methanol + 0.1% formic acid, pH 3; gradient (min/%B) 0/0 1/0 6/5 30/100 35/100 35.1/0 40/0
[16] = HILIC, Thermo Scientific Accucore HILIC, 100 × 2.1 mm, 2.6 µm, 0.5 mL/min, estimated dead time 0.44 min; A: water + 0.1% formic acid + 10 mM ammonium formate, pH 3; B: 5% water + 95% acetonitrile + 0.1% formic acid + 10 mM ammonium formate, pH 3; gradient (min/%B) 0/95 5/95 20/57 25/57 30/95 40/95
[17] = HILIC, Merck SeQuant ZIC-HILIC, 150 × 2.1 mm, 5 µm, 0.75 mL/min, estimated dead time 0.44 min; A: water + 10 mM ammonium formate, pH 6; B: 5% water + 95% acetonitrile + 10 mM ammonium formate, pH 6; gradient (min/%B) 0/95 5/95 20/57 25/57 30/95 40/95
[18] = RP, Waters ACQUITY UPLC BEH C18, 100 × 2.1 mm, 1.7 µm, 0.1 mL/min, estimated dead time 2.2 min; A: water + 0.1% formic acid, pH 3; B: methanol + 0.1% formic acid, pH 3; gradient (min/%B) 0/5 5/5 25/100 30/100 30.1/5 35/5
[19] = RP, Waters CORTECS T3, 100 × 2.1 mm, 2.7 µm, 0.2 mL/min, estimated dead time 1.1 min; A: water + 0.1% formic acid, pH 3; B: methanol + 0.1% formic acid, pH 3; gradient (min/%B) 0/5 5/5 25/95 25.1/100 35/100 35.1/5 45/5
[20] = RP, Waters CORTECS T3, 100 × 2.1 mm, 2.7 µm, 0.15 mL/min, estimated dead time 1.5 min; A: water + 0.1% formic acid, pH 3; B: methanol + 0.1% formic acid, pH 3; gradient (min/%B) 0/5 5/5 25/95 25.1/100 35/100 35.1/5 45/5
[21] = RP, Waters CORTECS T3, 100 × 2.1 mm, 2.7 µm, 0.3 mL/min, estimated dead time 0.73 min; A: water + 0.1% formic acid, pH 3; B: methanol + 0.1% formic acid, pH 3; gradient (min/%B) 0/0 5/0 25/100 30/100 30.1/0 35/0; remark: listed apart in the source
[22] = RP, Waters ACQUITY UPLC BEH C18, 100 × 2.1 mm, 1.7 µm, 0.2 mL/min, estimated dead time 1.1 min; A: water + 0.025% formic acid + 20 mM ammonium acetate + 0.055% ammonium hydroxide, pH 7; B: methanol; gradient (min/%B) 0/5 5/5 25/100 30/100 30.1/5 35/5
[23] = HILIC, Waters XBridge BEH Amide, 100 × 2.1 mm, 2.5 µm, 0.5 mL/min, estimated dead time 0.44 min; A: water + 0.1% acetic acid + 10 mM ammonium acetate, pH 4; B: 5% water + 95% acetonitrile + 0.1% acetic acid + 10 mM ammonium acetate, pH 4; gradient (min/%B) 0/95 5/95 20/57 25/57 30/95 40/95

LC retention time [1] [min] | LC retention time [5] [min] | LC retention time [8] [min] | LC retention time [9] [min] | LC retention time [10] [min] | LC retention time [12] [min] | LC retention time [16] [min] | LC retention time [17] [min] | LC retention time [19] [min] | LC retention time [20] [min] | LC retention time [21] [min] | LC retention time [22] [min] | LC retention time [23] [min] | SMILES | other results
5.25 | 6.44 | 8.96 | 7.13 | 10.9 | 10.6 | 9.89 | 11 | 12.6 | 8.37 | 8.03 | – | – | N[C@@H](Cc1ccc(O)c([N+](=O)[O-])c1)C(=O)O [3-NITRO-L-TYROSINE] | LC retention time [2]: 7.83 min; LC retention time [3]: 10.8 min; LC retention time [4]: 6.9 min; LC retention time [6]: 4.27 min; LC retention time [7]: 7.98 min; LC retention time [11]: 8.81 min; LC retention time [13]: 4.34 min; LC retention time [14]: 6.31 min; LC retention time [15]: 10.4 min; LC retention time [18]: 10.8 min
2.43 | 3.16 | 5.13 | 3.71 | 6.08 | 8.54 | 2.99 | – | 9.19 | 3.97 | 3.7 | 1.38 | – | CC(=O)NCCCC(=O)[O-] [4-ACETAMIDOBUTANOATE] | –
10.9 | 11.9 | 13.3 | 11.7 | 15.6 | 11.9 | 2.01 | 12.9 | 16.9 | 13.1 | 11.3 | – | – | O=C(O)CCCCCC(=O)O [6-CARBOXYHEXANOATE] | –
1.89 | 2.68 | 3.02 | 2.13 | 5.22 | – | 1.05 | – | 5.88 | 3.09 | 2.13 | 2.03 | 1.66 | Nc1ccccc1S(=O)(=O)O [ANILINE-2-SULFONIC ACID] | –
15.6 | 16.3 | 18.4 | 16.9 | 19.9 | 9.72 | 1.1 | 7.14 | 21.8 | 17.6 | 15.4 | 1.41 | – | O=C(O)CCCCCCCC(=O)O [AZELAIC ACID] | –
6.13 | 8.3 | 9.43 | 7.57 | 12.3 | 7.68 | 5.85 | – | 13.3 | 9.18 | 8.31 | 2.14 | – | CSCCC(NC=O)C(=O)O [FORMYL-L-METHIONYL PEPTIDE] | –
6.23 | 8.8 | 9.62 | 7.71 | 12.8 | 3.84 | 0.54 | – | 13.6 | 9.5 | 8.35 | 5.76 | 0.95 | O=S(=O)(O)Oc1c[nH]c2ccccc12 [INDOXYL SULFATE] | –
2.9 | 3.3 | 6.93 | 5.37 | 2.76 | 8.42 | 4.88 | 8.73 | 10.8 | 4.68 | – | 1.41 | 7.97 | O=c1[nH]cnc2c1ncn2C1OC(CO)C(O)C1O (stereo not given) [INOSINE] | –
13.5 | 14.3 | 16.1 | 14.6 | 18 | – | 1.39 | – | 19.6 | 15.6 | 13.5 | – | – | O=C(O)CCCCCCC(=O)O [SUBERIC ACID] | –
